These results are taken from ChEMBL document CHEMBL5291721, “A preclinical secondary pharmacology resource illuminates target-adverse drug reaction associations of marketed drugs” (Nat Commun, 2023).

Bounds are passed on as bounds.

Assay [1] concerns the target Bile salt export pump (Homo sapiens, UniProt O95342). Type of assay: functional.
The target in assay [2] is T1, Adenosine receptor A1 (Homo sapiens, UniProt P30542).
T1 sequence (P30542 whole entry): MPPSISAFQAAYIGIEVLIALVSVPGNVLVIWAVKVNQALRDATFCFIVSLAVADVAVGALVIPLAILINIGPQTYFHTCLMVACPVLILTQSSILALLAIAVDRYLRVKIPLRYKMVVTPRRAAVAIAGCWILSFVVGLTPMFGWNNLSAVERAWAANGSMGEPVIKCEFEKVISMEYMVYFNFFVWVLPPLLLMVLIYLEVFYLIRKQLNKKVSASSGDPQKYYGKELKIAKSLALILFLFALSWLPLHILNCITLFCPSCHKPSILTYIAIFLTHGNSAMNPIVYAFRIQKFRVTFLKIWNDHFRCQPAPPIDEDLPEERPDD

Assay [3] addresses T2, Adenosine receptor A3 (Homo sapiens, UniProt P0DMS8).
T2 sequence (P0DMS8 whole entry): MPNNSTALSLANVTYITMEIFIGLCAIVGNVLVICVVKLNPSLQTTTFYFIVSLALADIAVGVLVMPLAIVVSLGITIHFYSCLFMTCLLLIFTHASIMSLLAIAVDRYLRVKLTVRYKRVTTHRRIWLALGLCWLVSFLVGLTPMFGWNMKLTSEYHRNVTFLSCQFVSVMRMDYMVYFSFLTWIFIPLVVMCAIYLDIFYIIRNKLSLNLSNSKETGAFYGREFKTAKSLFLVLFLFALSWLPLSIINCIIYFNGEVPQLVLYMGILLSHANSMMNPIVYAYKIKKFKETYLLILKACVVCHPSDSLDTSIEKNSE

In assay [4] the target is T3, Type-1 angiotensin II receptor (Homo sapiens, UniProt P30556).
T3 sequence (P30556 whole entry): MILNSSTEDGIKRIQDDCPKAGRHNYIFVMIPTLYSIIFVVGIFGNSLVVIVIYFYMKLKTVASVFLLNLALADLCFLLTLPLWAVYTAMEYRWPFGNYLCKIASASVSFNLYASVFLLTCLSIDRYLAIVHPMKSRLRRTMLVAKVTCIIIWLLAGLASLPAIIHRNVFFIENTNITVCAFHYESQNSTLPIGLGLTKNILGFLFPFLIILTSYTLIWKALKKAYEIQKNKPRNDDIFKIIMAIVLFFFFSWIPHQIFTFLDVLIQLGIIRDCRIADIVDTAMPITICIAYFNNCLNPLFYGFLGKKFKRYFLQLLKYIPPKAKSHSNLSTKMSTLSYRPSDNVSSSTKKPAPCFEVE

Assay [5] addresses T4, Cholecystokinin receptor type A (Homo sapiens, UniProt P32238).
T4 sequence (P32238 whole entry): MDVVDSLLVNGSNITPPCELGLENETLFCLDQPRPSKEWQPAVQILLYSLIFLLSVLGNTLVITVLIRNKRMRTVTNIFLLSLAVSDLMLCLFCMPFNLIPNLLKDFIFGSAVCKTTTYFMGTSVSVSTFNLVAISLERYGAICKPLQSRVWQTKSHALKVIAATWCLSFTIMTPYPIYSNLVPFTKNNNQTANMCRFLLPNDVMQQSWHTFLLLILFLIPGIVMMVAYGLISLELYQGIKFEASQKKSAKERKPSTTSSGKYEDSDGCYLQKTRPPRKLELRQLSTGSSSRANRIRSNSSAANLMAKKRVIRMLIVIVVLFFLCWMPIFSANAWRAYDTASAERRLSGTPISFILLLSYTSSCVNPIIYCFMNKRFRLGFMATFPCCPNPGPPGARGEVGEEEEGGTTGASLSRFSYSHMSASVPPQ

In assay [6] the target is T5, Muscarinic acetylcholine receptor M2 (Homo sapiens, UniProt P08172).
T5 sequence (P08172 whole entry): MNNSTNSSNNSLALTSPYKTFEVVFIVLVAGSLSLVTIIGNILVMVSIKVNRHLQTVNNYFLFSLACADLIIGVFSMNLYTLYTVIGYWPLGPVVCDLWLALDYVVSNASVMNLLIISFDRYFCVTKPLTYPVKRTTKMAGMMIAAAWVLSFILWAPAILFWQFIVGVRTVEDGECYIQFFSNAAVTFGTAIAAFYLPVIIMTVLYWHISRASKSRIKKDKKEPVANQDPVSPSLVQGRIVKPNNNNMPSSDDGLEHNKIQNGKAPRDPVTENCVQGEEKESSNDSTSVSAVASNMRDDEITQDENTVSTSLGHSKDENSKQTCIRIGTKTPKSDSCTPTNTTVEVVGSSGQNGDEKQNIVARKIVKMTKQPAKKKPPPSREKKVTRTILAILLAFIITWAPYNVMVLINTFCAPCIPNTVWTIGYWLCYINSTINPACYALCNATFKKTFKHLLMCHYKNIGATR
Type of assay: functional, cell-based.

Assay [7] addresses Neuronal acetylcholine receptor subunit alpha-4 (Homo sapiens, UniProt P43681).
The target of assay [8] is Gamma-aminobutyric acid receptor subunit alpha-1 (Rattus norvegicus, UniProt P62813). The class given is functional.
Gamma-aminobutyric acid receptor subunit alpha-1, sequence (P62813 whole entry): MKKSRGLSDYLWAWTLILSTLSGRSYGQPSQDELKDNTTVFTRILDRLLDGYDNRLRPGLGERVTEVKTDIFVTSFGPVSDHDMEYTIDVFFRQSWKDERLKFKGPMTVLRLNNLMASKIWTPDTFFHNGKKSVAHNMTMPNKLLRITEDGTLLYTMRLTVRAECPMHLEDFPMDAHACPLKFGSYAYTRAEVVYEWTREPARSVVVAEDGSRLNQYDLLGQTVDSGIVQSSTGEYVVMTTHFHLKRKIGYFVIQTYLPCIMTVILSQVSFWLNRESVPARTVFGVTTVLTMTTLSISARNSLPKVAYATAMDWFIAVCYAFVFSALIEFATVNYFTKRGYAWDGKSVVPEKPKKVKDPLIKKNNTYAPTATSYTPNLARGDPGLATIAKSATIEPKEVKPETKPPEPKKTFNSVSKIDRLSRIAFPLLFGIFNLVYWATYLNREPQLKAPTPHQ
The target of assay [9] is Melanocortin receptor 3 (Homo sapiens, UniProt P41968).
Melanocortin receptor 3, sequence (P41968 whole entry): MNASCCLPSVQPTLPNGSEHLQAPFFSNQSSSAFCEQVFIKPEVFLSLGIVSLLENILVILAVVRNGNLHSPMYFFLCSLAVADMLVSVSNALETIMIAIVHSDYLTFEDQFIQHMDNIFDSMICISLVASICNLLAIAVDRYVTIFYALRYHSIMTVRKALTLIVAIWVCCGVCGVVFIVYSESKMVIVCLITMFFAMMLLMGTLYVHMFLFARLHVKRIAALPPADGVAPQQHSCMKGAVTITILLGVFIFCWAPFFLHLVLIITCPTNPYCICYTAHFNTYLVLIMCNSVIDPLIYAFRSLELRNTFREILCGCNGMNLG
Assay [10] has as its target T6, Prostaglandin G/H synthase 1 (Rattus norvegicus, UniProt Q63921).
T6 sequence (Q63921 whole entry): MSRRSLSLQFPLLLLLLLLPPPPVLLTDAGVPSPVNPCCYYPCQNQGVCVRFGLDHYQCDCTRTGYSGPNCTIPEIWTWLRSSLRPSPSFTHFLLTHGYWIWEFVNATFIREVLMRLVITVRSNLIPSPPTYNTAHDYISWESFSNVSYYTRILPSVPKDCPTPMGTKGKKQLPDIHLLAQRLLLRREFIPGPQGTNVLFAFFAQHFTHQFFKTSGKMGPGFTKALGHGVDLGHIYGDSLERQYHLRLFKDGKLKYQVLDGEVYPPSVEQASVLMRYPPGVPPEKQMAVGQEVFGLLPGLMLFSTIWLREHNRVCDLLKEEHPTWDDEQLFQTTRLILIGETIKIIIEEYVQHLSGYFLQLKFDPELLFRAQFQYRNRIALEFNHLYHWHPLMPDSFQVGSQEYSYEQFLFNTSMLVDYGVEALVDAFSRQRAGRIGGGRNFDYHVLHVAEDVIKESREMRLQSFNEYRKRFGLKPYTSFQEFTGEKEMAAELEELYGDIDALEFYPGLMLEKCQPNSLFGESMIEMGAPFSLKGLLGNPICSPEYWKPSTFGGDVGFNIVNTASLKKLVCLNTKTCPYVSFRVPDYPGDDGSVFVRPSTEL
The class given is functional.
Further: assay procedure not described here.

Neuronal acetylcholine receptor subunit alpha-4, sequence (P43681 whole entry): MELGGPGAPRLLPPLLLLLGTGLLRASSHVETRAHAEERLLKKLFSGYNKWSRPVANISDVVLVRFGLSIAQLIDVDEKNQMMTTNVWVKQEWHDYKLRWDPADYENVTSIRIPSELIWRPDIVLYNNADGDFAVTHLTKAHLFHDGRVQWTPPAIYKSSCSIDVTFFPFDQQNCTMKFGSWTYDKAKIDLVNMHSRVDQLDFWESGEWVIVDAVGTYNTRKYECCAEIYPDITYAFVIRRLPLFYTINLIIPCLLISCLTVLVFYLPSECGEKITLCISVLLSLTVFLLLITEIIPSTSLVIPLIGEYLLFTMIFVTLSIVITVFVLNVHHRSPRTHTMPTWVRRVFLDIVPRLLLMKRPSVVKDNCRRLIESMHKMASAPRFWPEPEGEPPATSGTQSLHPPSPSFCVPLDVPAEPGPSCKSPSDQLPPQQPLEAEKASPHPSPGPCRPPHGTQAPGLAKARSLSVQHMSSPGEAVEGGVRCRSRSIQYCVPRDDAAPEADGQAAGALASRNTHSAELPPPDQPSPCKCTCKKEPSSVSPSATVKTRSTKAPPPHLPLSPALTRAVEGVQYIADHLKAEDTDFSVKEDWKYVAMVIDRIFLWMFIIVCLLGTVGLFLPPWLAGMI
Bile salt export pump, sequence (O95342 whole entry): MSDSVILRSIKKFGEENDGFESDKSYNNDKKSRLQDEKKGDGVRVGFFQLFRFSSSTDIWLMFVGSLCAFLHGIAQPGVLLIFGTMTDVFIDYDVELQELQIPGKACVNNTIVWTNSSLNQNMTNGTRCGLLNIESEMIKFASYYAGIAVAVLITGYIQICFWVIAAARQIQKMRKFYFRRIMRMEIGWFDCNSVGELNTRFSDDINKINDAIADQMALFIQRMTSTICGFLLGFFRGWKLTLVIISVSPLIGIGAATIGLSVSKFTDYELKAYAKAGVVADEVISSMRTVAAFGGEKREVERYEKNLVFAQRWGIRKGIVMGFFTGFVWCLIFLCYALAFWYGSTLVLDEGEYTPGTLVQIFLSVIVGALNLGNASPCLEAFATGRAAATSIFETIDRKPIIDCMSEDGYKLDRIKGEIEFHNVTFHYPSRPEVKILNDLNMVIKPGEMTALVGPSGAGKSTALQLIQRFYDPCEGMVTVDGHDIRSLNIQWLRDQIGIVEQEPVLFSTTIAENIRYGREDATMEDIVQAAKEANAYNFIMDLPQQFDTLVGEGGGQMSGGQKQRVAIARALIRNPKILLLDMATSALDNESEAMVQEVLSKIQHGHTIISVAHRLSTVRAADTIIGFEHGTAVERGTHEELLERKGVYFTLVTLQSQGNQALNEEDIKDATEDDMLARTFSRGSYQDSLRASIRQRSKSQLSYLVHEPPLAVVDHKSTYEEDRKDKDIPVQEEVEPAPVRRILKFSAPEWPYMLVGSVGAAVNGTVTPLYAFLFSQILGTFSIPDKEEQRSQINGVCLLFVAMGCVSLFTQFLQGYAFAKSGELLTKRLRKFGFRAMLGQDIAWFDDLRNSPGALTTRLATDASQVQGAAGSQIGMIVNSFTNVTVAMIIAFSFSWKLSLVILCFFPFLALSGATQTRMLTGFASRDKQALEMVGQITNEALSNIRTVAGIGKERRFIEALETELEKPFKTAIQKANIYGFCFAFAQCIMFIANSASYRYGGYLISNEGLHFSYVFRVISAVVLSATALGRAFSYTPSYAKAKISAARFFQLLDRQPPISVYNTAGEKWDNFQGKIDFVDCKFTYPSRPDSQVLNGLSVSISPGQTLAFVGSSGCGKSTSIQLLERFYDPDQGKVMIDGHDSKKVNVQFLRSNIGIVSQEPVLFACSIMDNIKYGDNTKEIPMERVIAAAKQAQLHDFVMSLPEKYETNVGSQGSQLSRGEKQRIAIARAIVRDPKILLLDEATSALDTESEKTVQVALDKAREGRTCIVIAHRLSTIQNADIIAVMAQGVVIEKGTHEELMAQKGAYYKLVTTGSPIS

For orientation: AC50 means the midpoint of the concentration-response curve, whichever way the signal moves. On to `CC(=O)c1ccc2c(c1)N(CCCN1CCN(CCO)CC1)c1ccccc1S2` [ACETOPHENAZINE], for which the AC50 is over 300 µM in assay [1]; over 30 µM in [2]; over 30 µM in assay [3]; over 30 µM in assay [4]; over 30 µM in [5]; over 30 µM in [6]. For the same compound, the AC50 in [7], in [8], in assay [9] and in assay [10] was over 30 µM each time.
Take `CC(C)NNC(=O)c1ccncc1` [IPRONIAZID]: the half-maximal activity concentration (AC50) was over 300 µM in assay [1]; over 30 µM in assay [2]; over 30 µM in [3]; over 30 µM in assay [4]; over 30 µM in [5]; over 30 µM in assay [6]. The AC50 in [7] is over 30 µM; in assay [8], over 30 µM; in assay [9], over 30 µM; in assay [10], 0.45 µM.
`O=C(O)c1cc(-c2ccc(F)cc2F)ccc1O` [DIFLUNISAL]: the AC50 in assay [1] was 160 µM; in assay [2] it was over 10 µM; in assay [3] it was over 10 µM; in [4], over 10 µM; in assay [5] it was over 10 µM; in [6], over 10 µM. Also, the AC50 in assay [7], in assay [8], in assay [9] and in [10] was over 10 µM each time.
With `CC(C)(C(=O)c1cccnc1)c1cccnc1` [METYRAPONE], the AC50 in assay [1] was 280 µM; in [2], over 10 µM; in [3] it was over 10 µM; in [4] it was over 10 µM; in assay [5], over 10 µM; in assay [6] it was over 10 µM. Moreover, the AC50 in [7], in assay [8], in assay [9] and in assay [10] was over 10 µM throughout.
For the compound `CCC[C@@H]1C[C@@H](C(=O)N[C@@H]([C@H]2O[C@H](SC)[C@H](O)[C@@H](O)[C@H]2O)[C@H](C)Cl)N(C)C1` [CLINDAMYCIN], the AC50 in [1] is over 300 µM; in [2], over 30 µM; in assay [3], over 30 µM; in assay [4], over 30 µM; in assay [5], over 30 µM; in [6] it was over 10 µM. Further, the concentration at half-maximal activity (AC50) in assay [7] was over 10 µM; in assay [8], over 10 µM; in [9] it was over 30 µM; in [10], over 30 µM.
Take `NC[C@H]1O[C@H](O[C@H]2[C@H](O)[C@@H](O[C@H]3O[C@H](CO)[C@@H](O)[C@H](N)[C@H]3O)[C@H](N)C[C@@H]2N)[C@H](O)[C@@H](O)[C@@H]1O` [KANAMYCIN]: the AC50 in assay [1] was over 300 µM; in assay [2], over 10 µM; in assay [3] it was over 10 µM; in assay [4], over 10 µM; in assay [5] it was over 10 µM; in assay [6], over 10 µM. Further, the AC50 in assay [7], in [8], in assay [9] and in assay [10] was over 10 µM in each case.
Consider `CC[C@H](C)C(=O)O[C@H]1C[C@H](O)C=C2C=C[C@H](C)[C@H](CC[C@@H](O)C[C@@H](O)CC(=O)O)[C@H]21` [PRAVASTATIN], for which the AC50 in [1] was over 100 µM; in [2] it was over 30 µM; in [3], over 30 µM; in [4], over 30 µM; in [5] it was over 30 µM; in assay [6] it was over 30 µM. The AC50 in [7], in [8], in assay [9] and in assay [10] was over 30 µM each time.
